Measurements published in ChEMBL document CHEMBL2040781, “Design, synthesis, and biological evaluation of chromone-based p38 MAP kinase inhibitors” (J Med Chem, 2011).
Calls of active or inactive are those of the source. The rule behind the calls is not given here.

What was measured:
[1] = tested on: MCF7; assay: Potentiation of doxorubicin-mediated cytotoxicity in human MCF7 cells at 1 uM after 4 hrs by prestoblue cell viability assay; type: functional, cell-based
[2] = tested on: MDA-MB-436; assay: Potentiation of doxorubicin-mediated cytotoxicity in p53-deficient human MDA-MB-436 cells at 1 uM after 4 hrs by prestoblue cell viability assay; type: functional, cell-based
[3] = target: Mitogen-activated protein kinase 14 (Homo sapiens, UniProt Q16539); assay: Inhibition of p38alpha MAPK after 40 mins by scintillation counting
[4] = target: 5'-AMP-activated protein kinase catalytic subunit alpha-1 (Homo sapiens) (UniProt Q13131); assay: Inhibition of human AMPKalpha1 assessed as remaining activity at 0.8 uM after 40 mins by scintillation counting
[5] = target: Mitogen-activated protein kinase kinase kinase 5 (Homo sapiens) (UniProt Q99683); assay: Inhibition of human ASK1 assessed as remaining activity at 0.8 uM after 40 mins by scintillation counting
[6] = target: Cyclin-dependent kinase 2/cyclin A (Homo sapiens) (UniProt P24941+P20248+P78396); assay: Inhibition of human CDK2/cyclinA assessed as remaining activity at 0.8 uM after 40 mins by scintillation counting; type: protein-complex assay
[7] = target: CDK6/cyclin D3 (Homo sapiens) (UniProt P30281+Q00534); assay: Inhibition of human CDK6/cyclinD3 assessed as remaining activity at 0.8 uM after 40 mins by scintillation counting; type: protein-complex assay
[8] = target: CDK9/cyclin T1 (Homo sapiens) (UniProt O60563+P50750); assay: Inhibition of human CDK9/cyclin T1 assessed as remaining activity at 0.8 uM after 40 mins by scintillation counting; type: protein-complex assay
[9] = target: Serine/threonine-protein kinase Chk1 (Homo sapiens) (UniProt O14757); assay: Inhibition of human CHK1 assessed as remaining activity at 0.8 uM after 40 mins by scintillation counting
[10] = target: Casein kinase I isoform gamma-1 (Homo sapiens) (UniProt Q9HCP0); assay: Inhibition of human CK1gamma1 assessed as remaining activity at 0.8 uM after 40 mins by scintillation counting
[11] = target: RAF proto-oncogene serine/threonine-protein kinase (Homo sapiens) (UniProt P04049); assay: Inhibition of human RAF assessed as remaining activity at 0.8 uM after 40 mins by scintillation counting
[12] = target: Serine/threonine-protein kinase 17A (Homo sapiens) (UniProt Q9UEE5); assay: Inhibition of human DRAK1 assessed as remaining activity at 0.8 uM after 40 mins by scintillation counting
[13] = target: Ephrin type-A receptor 5 (Homo sapiens) (UniProt P54756); assay: Inhibition of human EphA5 assessed as remaining activity at 0.8 uM after 40 mins by scintillation counting
[14] = target: Insulin-like growth factor 1 receptor (Homo sapiens) (UniProt P08069); assay: Inhibition of human IGF-1R assessed as remaining activity at 0.8 uM after 40 mins by scintillation counting
[15] = target: Inhibitor of nuclear factor kappa-B kinase subunit alpha (Homo sapiens) (UniProt O15111); assay: Inhibition of human IKKalpha assessed as remaining activity at 0.8 uM after 40 mins by scintillation counting
[16] = target: Mitogen-activated protein kinase 9 (Homo sapiens) (UniProt P45984); assay: Inhibition of human JNK2alpha2 assessed as remaining activity at 0.8 uM after 40 mins by scintillation counting
Sequence of Mitogen-activated protein kinase 9 (Homo sapiens) (P45984 whole entry, looked up): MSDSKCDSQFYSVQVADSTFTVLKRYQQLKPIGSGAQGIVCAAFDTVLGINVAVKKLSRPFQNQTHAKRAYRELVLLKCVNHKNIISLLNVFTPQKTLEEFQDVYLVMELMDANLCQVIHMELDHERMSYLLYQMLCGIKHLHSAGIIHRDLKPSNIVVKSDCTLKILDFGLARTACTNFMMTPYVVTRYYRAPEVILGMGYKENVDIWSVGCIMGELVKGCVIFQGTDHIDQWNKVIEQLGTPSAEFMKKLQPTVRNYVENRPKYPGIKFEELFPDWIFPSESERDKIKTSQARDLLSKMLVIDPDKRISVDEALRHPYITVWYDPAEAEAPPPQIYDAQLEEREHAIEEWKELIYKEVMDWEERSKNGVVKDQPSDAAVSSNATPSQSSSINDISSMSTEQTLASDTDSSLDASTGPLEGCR

[17] = target: Vascular endothelial growth factor receptor 2 (Homo sapiens) (UniProt P35968); assay: Inhibition of human KDR assessed as remaining activity at 0.8 uM after 40 mins by scintillation counting
[18] = target: Serine/threonine-protein kinase 10 (Homo sapiens) (UniProt O94804); assay: Inhibition of human LOK assessed as remaining activity at 0.8 uM after 40 mins by scintillation counting
Sequence of Serine/threonine-protein kinase 10 (Homo sapiens) (O94804 whole entry, looked up): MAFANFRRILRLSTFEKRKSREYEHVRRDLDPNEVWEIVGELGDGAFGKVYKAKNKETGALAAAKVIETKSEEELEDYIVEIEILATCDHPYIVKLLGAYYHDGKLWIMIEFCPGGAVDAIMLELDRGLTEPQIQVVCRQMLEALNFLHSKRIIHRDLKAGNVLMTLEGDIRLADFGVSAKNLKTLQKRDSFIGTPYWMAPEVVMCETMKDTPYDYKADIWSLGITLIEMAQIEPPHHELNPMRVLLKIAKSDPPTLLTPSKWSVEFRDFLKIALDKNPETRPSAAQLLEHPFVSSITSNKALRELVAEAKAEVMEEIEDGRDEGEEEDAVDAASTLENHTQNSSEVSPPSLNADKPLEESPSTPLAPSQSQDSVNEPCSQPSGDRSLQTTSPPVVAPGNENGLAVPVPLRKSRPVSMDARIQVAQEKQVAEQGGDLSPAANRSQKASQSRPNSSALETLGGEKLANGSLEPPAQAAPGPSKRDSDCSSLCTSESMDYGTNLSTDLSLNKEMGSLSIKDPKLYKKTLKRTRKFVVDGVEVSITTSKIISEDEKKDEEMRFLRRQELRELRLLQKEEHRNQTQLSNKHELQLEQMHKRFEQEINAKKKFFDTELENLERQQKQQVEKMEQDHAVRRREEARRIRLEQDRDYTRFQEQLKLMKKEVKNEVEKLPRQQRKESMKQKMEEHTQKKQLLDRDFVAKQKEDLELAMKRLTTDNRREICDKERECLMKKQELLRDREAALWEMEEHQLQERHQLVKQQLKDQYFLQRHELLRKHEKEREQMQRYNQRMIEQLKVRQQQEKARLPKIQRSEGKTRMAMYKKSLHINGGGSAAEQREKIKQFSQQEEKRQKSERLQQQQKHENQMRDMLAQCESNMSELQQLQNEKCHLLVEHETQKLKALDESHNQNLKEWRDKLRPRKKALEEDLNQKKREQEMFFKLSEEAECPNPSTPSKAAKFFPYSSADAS

[19] = target: Tyrosine-protein kinase Lyn (Homo sapiens) (UniProt P07948); assay: Inhibition of human Lyn assessed as remaining activity at 0.8 uM after 40 mins by scintillation counting
[20] = target: Mitogen-activated protein kinase 1 (Homo sapiens) (UniProt P28482); assay: Inhibition of human MAPK1 assessed as remaining activity at 0.8 uM after 40 mins by scintillation counting
[21] = target: MAP kinase-activated protein kinase 2 (Homo sapiens) (UniProt P49137); assay: Inhibition of human MAPKAP-K2 assessed as remaining activity at 0.8 uM after 40 mins by scintillation counting
[22] = target: Dual specificity mitogen-activated protein kinase kinase 1 (Homo sapiens) (UniProt Q02750); assay: Inhibition of human MEK1 assessed as remaining activity at 0.8 uM after 40 mins by scintillation counting
[23] = target: Dual specificity mitogen-activated protein kinase kinase 7 (Homo sapiens) (UniProt O14733); assay: Inhibition of human MKK7beta assessed as remaining activity at 0.8 uM after 40 mins by scintillation counting
[24] = target: Ribosomal protein S6 kinase alpha-4 (Homo sapiens) (UniProt O75676); assay: Inhibition of human MSK2 assessed as remaining activity at 0.8 uM after 40 mins by scintillation counting
Sequence of Ribosomal protein S6 kinase alpha-4 (Homo sapiens) (O75676 whole entry, looked up): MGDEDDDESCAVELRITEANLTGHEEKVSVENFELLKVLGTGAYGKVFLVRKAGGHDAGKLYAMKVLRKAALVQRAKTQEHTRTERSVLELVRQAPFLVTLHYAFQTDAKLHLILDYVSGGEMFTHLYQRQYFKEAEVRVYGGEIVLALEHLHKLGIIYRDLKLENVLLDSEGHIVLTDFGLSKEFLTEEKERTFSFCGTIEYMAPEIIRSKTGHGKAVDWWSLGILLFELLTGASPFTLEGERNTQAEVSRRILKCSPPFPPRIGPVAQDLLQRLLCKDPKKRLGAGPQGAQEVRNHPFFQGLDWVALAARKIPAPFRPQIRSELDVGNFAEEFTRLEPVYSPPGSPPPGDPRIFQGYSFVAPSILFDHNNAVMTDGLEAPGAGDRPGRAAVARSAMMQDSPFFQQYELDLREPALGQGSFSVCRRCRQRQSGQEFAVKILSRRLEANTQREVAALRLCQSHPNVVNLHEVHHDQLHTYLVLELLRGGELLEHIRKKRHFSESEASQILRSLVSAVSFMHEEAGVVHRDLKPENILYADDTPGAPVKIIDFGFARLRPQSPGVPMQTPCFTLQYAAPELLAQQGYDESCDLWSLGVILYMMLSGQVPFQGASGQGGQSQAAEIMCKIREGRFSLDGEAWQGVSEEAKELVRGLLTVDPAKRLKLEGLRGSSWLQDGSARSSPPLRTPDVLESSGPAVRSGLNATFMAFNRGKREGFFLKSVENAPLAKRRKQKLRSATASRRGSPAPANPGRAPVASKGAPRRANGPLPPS

[25] = target: Serine/threonine-protein kinase 4 (Homo sapiens) (UniProt Q13043); assay: Inhibition of human MST1 assessed as remaining activity at 0.8 uM after 40 mins by scintillation counting
Sequence of Serine/threonine-protein kinase 4 (Homo sapiens) (Q13043 whole entry): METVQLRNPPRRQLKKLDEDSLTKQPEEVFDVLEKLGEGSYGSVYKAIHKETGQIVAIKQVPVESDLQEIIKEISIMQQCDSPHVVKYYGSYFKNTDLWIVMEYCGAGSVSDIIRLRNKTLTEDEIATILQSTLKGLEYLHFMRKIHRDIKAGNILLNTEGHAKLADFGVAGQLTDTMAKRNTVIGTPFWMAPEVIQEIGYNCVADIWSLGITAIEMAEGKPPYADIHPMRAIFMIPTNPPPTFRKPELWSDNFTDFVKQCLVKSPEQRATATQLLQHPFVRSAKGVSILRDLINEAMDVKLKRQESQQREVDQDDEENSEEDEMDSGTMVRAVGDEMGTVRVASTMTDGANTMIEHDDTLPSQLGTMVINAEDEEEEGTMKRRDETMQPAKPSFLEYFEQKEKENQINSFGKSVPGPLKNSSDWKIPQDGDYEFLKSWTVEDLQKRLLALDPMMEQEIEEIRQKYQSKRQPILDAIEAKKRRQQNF

[26] = target: Serine/threonine-protein kinase Nek2 (Homo sapiens) (UniProt P51955); assay: Inhibition of human NEK2 assessed as remaining activity at 0.8 uM after 40 mins by scintillation counting
[27] = target: Serine/threonine-protein kinase PAK 2 (Homo sapiens) (UniProt Q13177); assay: Inhibition of human PAK2 assessed as remaining activity at 0.8 uM after 40 mins by scintillation counting
Sequence of Serine/threonine-protein kinase PAK 2 (Homo sapiens) (Q13177 whole entry): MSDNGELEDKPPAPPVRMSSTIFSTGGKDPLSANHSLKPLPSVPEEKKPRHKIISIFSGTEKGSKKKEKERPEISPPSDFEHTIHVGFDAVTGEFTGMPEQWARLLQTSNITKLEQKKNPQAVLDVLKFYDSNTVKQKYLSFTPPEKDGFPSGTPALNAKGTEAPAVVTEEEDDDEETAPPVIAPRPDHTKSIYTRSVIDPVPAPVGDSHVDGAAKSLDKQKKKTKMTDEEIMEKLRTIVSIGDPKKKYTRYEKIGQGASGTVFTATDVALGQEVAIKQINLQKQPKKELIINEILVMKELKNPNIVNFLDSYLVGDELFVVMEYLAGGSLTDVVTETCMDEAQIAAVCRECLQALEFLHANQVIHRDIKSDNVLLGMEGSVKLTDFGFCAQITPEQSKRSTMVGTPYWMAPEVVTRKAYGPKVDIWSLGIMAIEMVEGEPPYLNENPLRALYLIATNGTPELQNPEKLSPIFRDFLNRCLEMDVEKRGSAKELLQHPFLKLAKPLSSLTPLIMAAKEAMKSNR

[28] = target: Serine/threonine-protein kinase pim-1 (Homo sapiens) (UniProt P11309); assay: Inhibition of human Pim-1 assessed as remaining activity at 0.8 uM after 40 mins by scintillation counting
Sequence of Serine/threonine-protein kinase pim-1 (Homo sapiens) (P11309 whole entry, looked up): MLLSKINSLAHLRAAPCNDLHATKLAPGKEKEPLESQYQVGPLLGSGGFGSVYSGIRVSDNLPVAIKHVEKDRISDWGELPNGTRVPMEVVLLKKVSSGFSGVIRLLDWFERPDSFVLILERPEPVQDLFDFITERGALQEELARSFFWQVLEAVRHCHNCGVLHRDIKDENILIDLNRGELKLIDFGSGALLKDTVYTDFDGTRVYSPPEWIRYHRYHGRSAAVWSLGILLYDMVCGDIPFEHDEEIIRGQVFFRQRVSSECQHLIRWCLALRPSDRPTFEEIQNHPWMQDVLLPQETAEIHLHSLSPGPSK

[29] = species on record: Homo sapiens; assay: Inhibition of human PKA assessed as remaining activity at 0.8 uM after 40 mins by scintillation counting
[30] = target: RAC-alpha serine/threonine-protein kinase (Homo sapiens) (UniProt P31749); assay: Inhibition of human PKBalpha assessed as remaining activity at 0.8 uM after 40 mins by scintillation counting
[31] = target: MAP kinase-activated protein kinase 5 (Homo sapiens) (UniProt Q8IW41); assay: Inhibition of human PRAK assessed as remaining activity at 0.8 uM after 40 mins by scintillation counting
Sequence of MAP kinase-activated protein kinase 5 (Homo sapiens) (Q8IW41 whole entry): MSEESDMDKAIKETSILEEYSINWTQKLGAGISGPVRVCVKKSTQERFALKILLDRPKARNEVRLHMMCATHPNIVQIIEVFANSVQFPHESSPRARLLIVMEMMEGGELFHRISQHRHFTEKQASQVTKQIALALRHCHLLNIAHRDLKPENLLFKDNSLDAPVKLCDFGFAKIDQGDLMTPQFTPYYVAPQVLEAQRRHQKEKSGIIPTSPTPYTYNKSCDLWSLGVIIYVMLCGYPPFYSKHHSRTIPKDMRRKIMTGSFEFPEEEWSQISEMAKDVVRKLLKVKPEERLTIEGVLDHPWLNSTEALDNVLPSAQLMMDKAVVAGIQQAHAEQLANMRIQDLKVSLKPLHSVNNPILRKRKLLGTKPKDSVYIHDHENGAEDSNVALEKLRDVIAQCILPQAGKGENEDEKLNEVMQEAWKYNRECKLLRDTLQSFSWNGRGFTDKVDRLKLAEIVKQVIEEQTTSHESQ

[32] = target: Tyrosine-protein kinase receptor TYRO3 (Homo sapiens) (UniProt Q06418); assay: Inhibition of human Rse assessed as remaining activity at 0.8 uM after 40 mins by scintillation counting
Sequence of Tyrosine-protein kinase receptor TYRO3 (Homo sapiens) (Q06418 whole entry): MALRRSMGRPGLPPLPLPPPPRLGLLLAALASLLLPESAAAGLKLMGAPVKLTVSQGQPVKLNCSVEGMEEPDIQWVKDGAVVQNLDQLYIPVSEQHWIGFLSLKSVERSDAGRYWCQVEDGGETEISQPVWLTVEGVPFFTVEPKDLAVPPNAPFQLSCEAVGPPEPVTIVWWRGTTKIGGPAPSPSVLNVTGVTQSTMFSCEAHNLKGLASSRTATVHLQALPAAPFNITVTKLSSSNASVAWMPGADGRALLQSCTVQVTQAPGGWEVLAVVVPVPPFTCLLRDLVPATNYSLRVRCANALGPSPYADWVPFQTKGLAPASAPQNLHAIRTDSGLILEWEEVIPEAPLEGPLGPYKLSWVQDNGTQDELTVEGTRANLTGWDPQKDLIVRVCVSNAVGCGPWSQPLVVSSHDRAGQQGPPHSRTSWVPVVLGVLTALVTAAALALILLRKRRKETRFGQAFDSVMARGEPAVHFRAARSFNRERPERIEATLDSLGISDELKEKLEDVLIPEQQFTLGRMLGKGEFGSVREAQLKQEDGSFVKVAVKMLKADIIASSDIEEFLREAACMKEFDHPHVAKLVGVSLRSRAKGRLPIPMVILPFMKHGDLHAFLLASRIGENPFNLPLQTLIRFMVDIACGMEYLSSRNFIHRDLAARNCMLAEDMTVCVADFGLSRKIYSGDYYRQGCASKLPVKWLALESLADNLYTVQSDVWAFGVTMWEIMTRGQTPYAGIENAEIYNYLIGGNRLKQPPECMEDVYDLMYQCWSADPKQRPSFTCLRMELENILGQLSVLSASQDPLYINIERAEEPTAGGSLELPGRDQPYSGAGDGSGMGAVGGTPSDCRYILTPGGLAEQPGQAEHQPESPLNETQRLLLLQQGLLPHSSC

[33] = target: Mitogen-activated protein kinase 11 (Homo sapiens) (UniProt Q15759); assay: Inhibition of human SAPK2b assessed as remaining activity at 0.8 uM after 40 mins by scintillation counting
[34] = target: Mitogen-activated protein kinase kinase kinase 7 (TAK1) (Homo sapiens) (UniProt O43318); assay: Inhibition of human TAK1 assessed as remaining activity at 0.8 uM after 40 mins by scintillation counting

IC50 [3]	Activity [4]	Activity [5]	Activity [6]	Activity [7]	Activity [8]	Activity [9]	Activity [10]	Activity [11]	Activity [12]	Activity [13]	Activity [14]	Activity [15]	Activity [16]	Activity [17]	Activity [18]	Activity [19]	Activity [20]	SMILES	Activity [1]	Activity [2]	also measured
17 nM	97%	105%	95%	100%	96%	98%	94%	73%	107%	103%	94%	106%	58%	98%	102%	101%	82%	CC(C)Nc1cc(-c2oc3ccccc3c(=O)c2-c2ccc(F)cc2)ccn1	inactive	inactive	Activity [21]: 104%; Activity [22]: 99%; Activity [23]: 120%; Activity [24]: 89%; Activity [25]: 99%; Activity [26]: 98%; Activity [27]: 106%; Activity [28]: 100%; Activity [29]: 114%; Activity [30]: 100%; Activity [31]: 72%; Activity [32]: 98%; Activity [33]: -3%; Activity [34]: 97%
34 nM	102%	102%	101%	99%	93%	104%	97%	83%	111%	104%	100%	100%	71%	101%	94%	98%	87%	O=c1c(-c2ccc(F)cc2)c(-c2ccnc(NC3CCCCC3)c2)oc2ccccc12	inactive	inactive	Activity [21]: 99%; Activity [22]: 104%; Activity [23]: 99%; Activity [24]: 95%; Activity [25]: 93%; Activity [26]: 98%; Activity [27]: 104%; Activity [28]: 97%; Activity [29]: 118%; Activity [30]: 107%; Activity [31]: 66%; Activity [32]: 91%; Activity [33]: 9%; Activity [34]: 103%
